Patent US20080317858A1, “FORMULATIONS OF N-(2-ACETYL-4,6-DIMETHYLPHENYL)-3--2-THIOPHENECARBOXAMIDE” (priority 2007, published 2008)

melting point: 158 to 160 °C
SMILES: CC(=O)c1cc(C)cc(C)c1NC(=O)c1sccc1S(=O)(=O)Nc1onc(C)c1C [N-(2-acetyl-4,6-dimethylphenyl)-3-{[(3,4 dimethyl-5-isoxazolyl)amino]sulfonyl}-2-thiophenecarboxamide]
